One test deals with T1, RXRβ (UniProt P28704).
T1 sequence (P28704 1-520): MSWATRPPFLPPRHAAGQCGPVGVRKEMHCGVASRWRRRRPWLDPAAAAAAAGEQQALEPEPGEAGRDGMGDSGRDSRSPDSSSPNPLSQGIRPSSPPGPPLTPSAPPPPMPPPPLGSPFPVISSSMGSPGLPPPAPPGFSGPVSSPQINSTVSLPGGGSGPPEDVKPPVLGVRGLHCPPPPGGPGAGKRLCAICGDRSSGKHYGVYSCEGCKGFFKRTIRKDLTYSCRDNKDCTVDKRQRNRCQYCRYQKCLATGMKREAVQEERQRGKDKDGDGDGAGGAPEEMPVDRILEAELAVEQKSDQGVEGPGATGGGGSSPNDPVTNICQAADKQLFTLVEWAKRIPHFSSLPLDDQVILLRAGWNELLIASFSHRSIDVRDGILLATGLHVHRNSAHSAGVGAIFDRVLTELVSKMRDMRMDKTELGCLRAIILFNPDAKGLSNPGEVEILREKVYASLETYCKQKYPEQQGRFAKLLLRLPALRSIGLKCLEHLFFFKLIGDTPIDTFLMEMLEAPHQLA
Kind of test: ligand binding assay, RXRβ. Particulars: for Ki: read-out: RXR Bind Ki β; for Kd: Table 9 (Formula F), read-out: RXR β Kd. The essentials:
(§1)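 Binding of compounds to several retinoid receptor subtypes was measured. Results are given as Ki values in nanomolar concentration, derived per Cheng et al.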

The target in a further test is T2, RARβ (Homo sapiens, UniProt P10826).
T2 sequence (P10826 183-417 limits assumed): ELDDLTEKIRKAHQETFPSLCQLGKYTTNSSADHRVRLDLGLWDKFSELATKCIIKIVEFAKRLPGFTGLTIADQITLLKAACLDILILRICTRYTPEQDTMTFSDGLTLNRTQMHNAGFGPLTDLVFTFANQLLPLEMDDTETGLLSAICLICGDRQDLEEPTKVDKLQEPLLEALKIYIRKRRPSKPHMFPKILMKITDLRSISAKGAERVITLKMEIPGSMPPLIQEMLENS
Kind of test: chimeric receptor transactivation assay, RARβ. It is filed as cell-based. Particulars: for EC50: chimeric receptor transactivation, read-out: RAR Trans. EC50 β; for Emax: percentage compared to the standard compound, read-out: RAR Trans. efficacy (number in parentheses) β. An excerpt: Specifically, one such assay is a chimeric receptor transactivation assay which tests for agonist-like activity in the R RAPE and RAR7 receptor subtypes, and which is based on work published by Feigner, P. L. and Holm, M (1989) Focus, 112 is described in detail in U.S. Pat. No. 5,455,265. The specification of U.S. Pat. No. 5,455,265 is hereby expressly incorporated by reference. A holoreceptor transactivation assay and a ligand binding assay which measure the antagonist/agonist like activity of the compounds of the invention, or their ability to bind to the several retinoid receptor subtypes, respectively, are described in published PCT Application No. WO WO93/11755 (particularly on pages 30-33 and 37-41) published on Jun. 24, 1993, the specification of which is also incorporated herein by reference. A detailed experimental procedure for holoreceptor transactivations has been described by Heyman et al. Cell 68, 397-406, (1992); Allegretto et al. J. Biol. Chem. 268, 26625-26633, and Mangelsdorf et al. The Retinoids: Biology, Chemistry and Medicine, pp 319-349, Raven Press Ltd., New York, which are expressly incorporated herein by reference. The results obtained in this assay are expressed in EC50 numbers, as they are also in the chimeric receptor transactivation assay. The results of the ligand binding assay are expressed in Ki numbers. (See Cheng et al. Biochemical Pharmacology Vol. 22 pp 3099-3108, expressly incorporated herein by reference.)
Efficacy in a transactivation assay is expressed as a percentage of the maximum potency attained by the compound compared to a standard which, in this case, is the compound named (2E,4E,1′S,2′S)-3-methyl-5-[2′-methyl-2′-(5,5,8,8-tetramethyl-5,6,7,8-tetrahydro-naphthalen-2-yl)-cyclopropyl]-penta-2,4-dienoic acid. This standard compound is described in U.S. Pat. No. 6,114,533.
The specification of this application for patent is organized in several sections in accordance with structural Formulas A through F each of which discloses a group of preferred compounds within the scope of the invention. Tables that disclose the activity of certain exemplary compounds of the invention in the above-described RXR receptor transactivation and binding assays are found in the corresponding sections. […] The transactivation data pertaining to the activation of RXR receptors were obtained in the holoreceptor assay.
Generally speaking, in the tables disclosing the results of transactivation and binding assays the numbers in parentheses indicate efficacy as a percentage compared to the standard compound, (2E,4E,1′S,2′S)-3-methyl-5-[2′-methyl-2′-(5,5,8,8-tetramethyl-5,6,7,8-tetrahydro-naphthalen-2-yl)cyclopropyl]-penta-2,4-dienoic acid and the other numbers indicate the measured EC50 and K; in nanomolar concentration.

The next test concerns the target T3, RARα (Homo sapiens, UniProt P10276).
T3 sequence (P10276 1-462): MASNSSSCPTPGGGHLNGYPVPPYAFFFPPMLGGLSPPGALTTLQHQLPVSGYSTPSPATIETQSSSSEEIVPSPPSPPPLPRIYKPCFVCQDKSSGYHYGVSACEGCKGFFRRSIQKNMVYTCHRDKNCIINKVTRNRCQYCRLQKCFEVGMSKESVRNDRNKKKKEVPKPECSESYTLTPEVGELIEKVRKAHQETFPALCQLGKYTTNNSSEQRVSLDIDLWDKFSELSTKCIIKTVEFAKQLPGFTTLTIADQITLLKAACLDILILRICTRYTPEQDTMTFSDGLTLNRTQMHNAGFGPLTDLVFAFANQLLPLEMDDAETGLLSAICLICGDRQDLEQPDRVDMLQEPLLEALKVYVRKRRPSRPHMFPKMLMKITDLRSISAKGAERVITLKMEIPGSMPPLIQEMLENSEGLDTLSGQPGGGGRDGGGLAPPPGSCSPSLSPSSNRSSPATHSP
Kind of test: ligand binding assay, RARα. Particulars: for Ki: read-out: RAR Bind. Ki α; for Kd: Table 9 (Formula F), read-out: RAR α Kd. The essentials:
as §1

The target in a further test is T4, RXRα (Homo sapiens, UniProt P19793).
T4 construct: expressed in transfected cells
T4 sequence (P19793 1-462): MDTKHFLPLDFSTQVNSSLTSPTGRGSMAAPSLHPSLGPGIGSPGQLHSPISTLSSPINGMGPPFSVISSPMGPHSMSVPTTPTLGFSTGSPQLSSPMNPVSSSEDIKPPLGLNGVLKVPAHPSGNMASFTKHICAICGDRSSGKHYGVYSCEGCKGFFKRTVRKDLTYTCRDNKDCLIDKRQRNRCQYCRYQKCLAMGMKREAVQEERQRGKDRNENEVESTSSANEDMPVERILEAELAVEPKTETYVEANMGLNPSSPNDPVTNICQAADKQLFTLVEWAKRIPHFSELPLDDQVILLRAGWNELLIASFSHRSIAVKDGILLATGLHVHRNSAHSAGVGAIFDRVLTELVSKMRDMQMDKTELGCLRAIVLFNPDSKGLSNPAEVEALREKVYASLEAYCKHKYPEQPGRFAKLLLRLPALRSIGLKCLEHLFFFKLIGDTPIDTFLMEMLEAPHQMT
Kind of test: holoreceptor transactivation assay, RXRα. It counts as cell-based. Particulars: for EC50: holoreceptor transactivation, read-out: RXR Trans. EC50 α; for Emax: percentage compared to the standard compound, read-out: RXR Trans. efficacy (number in parentheses) α. The essentials: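 RXR activation measured in holoreceptor transactivation assays; RAR subtypes in chimeric receptor transactivation assays. Values are EC50 in nM, with efficacy as percentage of maximal activity of a reference cyclopropyl-pentadienoic acid RXR agonist.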

SMILES strings stand for the structures.

The Ki is the equilibrium dissociation constant of an inhibitor or competing ligand from its target. The term EC50 denotes the concentration that produces a half-maximal response. The term Kd denotes a measure of binding affinity in units of concentration.

Consider `CCOc1cc2c(cc1\C(CC)=C(F)/C=C/C(C)=C/C(=O)O)C(C)=CC(C)(C)O2` [Compound 132, 7-(7-Ethoxy-2,2,4-trimethyl-2H-chromen-6-yl)-6-fluoro-3-methyl-nona-2E,4E,6E-trienoic acid], for which the Ki on RXRβ is 1.1 µM; at RARα it was 0.148 µM. Besides, the results for the EC50 on RARβ and on RXRα were 0.71 µM and 0.759 µM, respectively. Further, the Emax was found to be 8% on RARβ and 15% on RXRα.

Regarding `CCOc1cc2c(cc1\C(C)=C(F)/C=C/C(C)=C/C(=O)O)C(C)=CCC2(C)C`, the Ki on RXRβ turned out to be 0.015 µM; at RARα, 0.261 µM. For the same molecule, the results for the half-maximal effective concentration (EC50) at RARβ and on RXRα were 0.316 µM and 0.003 µM, respectively. Further, the results for the Emax on RARβ and on RXRα were 26% and 62%, respectively.

For the molecule `CC/C(=C(F)/C=C/C(C)=C/C(=O)O)c1cc2c(cc1OC)OC(C)(C)C=C2C(C)(C)C` [Compound 131, 7-(4-tert-Butyl-7-methoxy-2,2-dimethyl-2H-chromen-6-yl)-6-fluoro-3-methyl-nona-2E,4E,6E-trienoic acid], the inhibition constant (Ki) on RXRβ is 0.094 µM; on RARα, 0.837 µM. For the same molecule, the EC50 worked out at 0.116 µM on RARβ and 0.006 µM on RXRα. Moreover, the values for the Emax at RARβ and on RXRα were 13% and 37%, respectively.

As to `CCOc1c(\C(CC)=C(F)/C=C/C(C)=C/C(=O)O)cc2c(c1Cl)C(C)(C)CC=C2C(C)C` [Compound A-178, (2E,4E,6E)-7-(4-Chloro-3-ethoxy-8-isopropyl-5,5-dimethyl-5,6-dihydronaphthalen-2-yl)-6-fluoro-3-methyl-nona-2,4,6-trienoic acid], the Kd on RXRβ stood at 0.011 µM; on RARα it was 0.0099 µM. Further, the EC50 at RARβ worked out at 0.009 µM; on RXRα it was 0.0001 µM. In addition, the Emax at RARβ came out at 26%; on RXRα, 43%.

Turning to `CCOc1c(\C(CC)=C(F)/C=C/C(C)=C/C(=O)O)cc2c(c1Br)C(C)(C)CC=C2C(C)CC` (stereo not drawn) [Compound A-176, (2E,4E,6E)-7-(4-Bromo-8-sec-butyl-3-ethoxy-5,5-methyl-5,6-dihydro-naphthalen-2-yl)-6-fluoro-3-methyl-nona-2,4,6-trienoic acid], the Kd worked out at 0.023 µM on RXRβ and 0.032 µM at RARα. Moreover, the EC50 is 0.014 µM at RARβ and 0.0009 µM at RXRα. Besides, the Emax on RARβ turned out to be 19%; at RXRα, 58%.

Consider `CCOc1c(\C(CC)=C(F)/C=C/C(C)=C/C(=O)O)cc2c(c1Br)C(C)(C)CC=C2C(C)C` [Compound A-170, (2E,4E,6E)-7-(4-Bromo-3-ethoxy-8-isopropyl-5,5-dimethyl-5,6-dihydro-naphthalen-2-yl)-6-fluoro-3-methyl-nona-2,4,6-trienoic acid], for which the Kd at RXRβ worked out at 0.014 µM; on RARα it was 0.012 µM. In addition, the concentration giving a half-maximal response (EC50) stood at 0.0035 µM at RARβ and 0.0002 µM on RXRα. Further, the Emax at RARβ stood at 8%; on RXRα, 60%.

As to `CCOc1cc2c(cc1\C(C)=C(F)/C=C/C(C)=C/C(=O)O)C(C(C)(C)C)=CCC2(C)C` [Compound A-82, (2E,4E,6E)-6-Fluoro-3-(4,4-dimethyl-6-ethoxy-1-tert-butyl-3,4 dihydronaphthalen-7-yl)-3-methyl-2,4,6-octa-trienoic acid], the Ki on RXRβ came out at 0.014 µM; at RARα, 0.387 µM. The values for the EC50 on RARβ and at RXRα were 0.17 µM and 0.001 µM, respectively. Also, the Emax stood at 9% on RARβ and 43% on RXRα.

In the case of `CCC1=CC(C)(C)Oc2cc(OC)c(\C(C)=C/C=C/C(C)=C/C(=O)O)cc21` [Compound 42, 7-(4-Ethyl-7-methoxy-2,2-dimethyl-2H-chromen-6-yl)-3-methyl-octa-2E,4E,6Z-trienoic acid], the inhibitory constant (Ki) at RXRβ amounted to 0.228 µM; at RARα it was 8.9 µM. Also, the concentration for a half-maximal effect (EC50) at RARβ was found to be 0.845 µM; at RXRα, 0.006 µM. Besides, the Emax at RARβ was 34%; on RXRα, 99%.

The record behind these values is US6887896B1, “7-[(7-Alkoxy)-chrom-3-en-6-yl]-heptatrienoic acid and 7-[(3-alkoxy)-5,6-dihydronaphthalen-2-yl]-heptatrienoic acid derivatives having serum glucose reducing activity” (Allergan, Inc., priority 2003, dated 2005).
